Measurements as given in US5585381A, “Pyrimidine derivatives and pharmaceutical composition” (Kureha Chemical Industry Co., Ltd., priority 1994, dated 1996).
Where two headings read alike, the source gives them in different places.

How the values were obtained:
[1] = Acute toxicity, single oral dose in mice; format: in vivo, ICR female mice; details: 500 mg/kg single oral dose, 6 days, 5 per group
Protocol: Five-week-old ICR female mice (5 mice per group) were bred for acclimation for a week. Then, the compounds of the present invention were dissolved or dispersed in an aqueous solution of 0.5% methylcellulose, and orally administered to the mice in a single dosage (500 mg/kg).

[2] = test system: kidney disease model rats; assay: Action to depress blood pressure in kidney disease model rats (tail cuff); format: in vivo, Sprague-Dawley female rats; details: 20 mg/kg per os; for Blood pressure (average systolic): after two days, control 210 mmHg
Protocol: (§1) The compounds of the present invention and the reference substance were forcedly administered per os to kidney disease model rats, and the action to depress blood pressure was observed. The kidney disease model rats were prepared by ligature of branches of renal artery in accordance with the conventional method, that is, the left hilum renalis of Sprague-Dawley female rats was exposed under anesthesia, and one of four secondary branches of renal artery was left unligated, while the remaining three branches were ligated, respectively. After a week, the hilum renalis (artery, vein, and ureter) of the right kidney were further ligated to thereby prepare the rats whose renal function was lowered to approximately 1/8 of the normal function. Each group consisted of eight rats. The drugs to be tested (20 mg/kg) were administered to each administering group, and only water was administered to control group. After two days from the administration, the systolic blood pressure was measured by the tail cuff method using a blood pressure measuring apparatus (UR5000; Ueda).

[3] = target: T1, angiotensin II receptor subtype 2 (AT2) (Bos taurus, UniProt G5E6F7); assay: Binding to angiotensin II receptor subtype 2 (AT2); parameters: species or system bovine (cerebellar cortex); details: 125I-Tyr4-angiotensin II tracer, 37° C., 1 hour
T1 construct: from cerebellar cortex in bovine; from tissue; host or cells: bovine cerebellar cortex
T1 sequence (G5E6F7 1-362): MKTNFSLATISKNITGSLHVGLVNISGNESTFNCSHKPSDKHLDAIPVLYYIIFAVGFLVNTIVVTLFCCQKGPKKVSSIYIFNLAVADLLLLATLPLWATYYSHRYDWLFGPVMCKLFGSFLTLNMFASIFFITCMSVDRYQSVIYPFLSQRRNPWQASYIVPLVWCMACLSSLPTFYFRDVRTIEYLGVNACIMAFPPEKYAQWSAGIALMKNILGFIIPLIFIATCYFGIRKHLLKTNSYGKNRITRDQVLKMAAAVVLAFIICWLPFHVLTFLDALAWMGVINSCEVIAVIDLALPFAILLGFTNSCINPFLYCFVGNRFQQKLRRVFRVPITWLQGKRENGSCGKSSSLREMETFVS
Protocol: (§2) In this Example, the affinity to the angiotensin II receptor subtype 1 or subtype 2 was evaluated by a binding assay in accordance with the method described in Biochem. Pharmacol., 33, 4057-4062 (1984).
(§3) Specifically, the measurement of the total binding in the presence of each drug was performed as follows:
(§4) A mixture (final volume=0.25 ml) of a drug in a given concentration (the drug was dissolved in DMSO, and diluted to a double volume with a buffer attached to a drug discovery system to prepare sample for the assay; 0,025 ml), a tracer (0.025 ml), and receptors (0.2 ml) was incubated [in the case of the angiotensin II receptor subtype 1 (AT1), at room temperature for 3 hours, and in the case of the subtype 2 (AT2), at 37° C. for 1 hour]. Then, the reaction mixture was filtered with suction (GF/C filter was used in AT1, and GF/B filter was used in AT2). The filter papers after filtration with suction (the tracer bound to the receptors) were counted by a γ-well counter (ARC-500, Aloka). The non-specific bindings were measured by repeating the above method, except that a large excess amount of a displacer was added. The specific binding of the drug in the given concentration was calculated by subtracting the non-specific binding from the total binding, respectively.
(§5) In AT1 and AT2, the percentages to inhibit the bindings of radioactive ligands (tracer) to receptors by the drugs to be tested (IC50 value of concentration to show 50% inhibition, or binding inhibition % in 100 μM) were measured, using the drugs to be tested and control drugs in the given concentration.
from cerebellar cortex in bovine
tracer: ^125 I-Tyr^4 -angiotensin II

[4] = test system: kidney disease model rats; assay: Action to survival time of kidney diseased animals; format: in vivo, Sprague-Dawley female rats; details: 20 mg/kg/day per os; observation eight weeks (upper limit); control 5.0
Protocol: as §1
The kidney disease model rats were prepared as in Example 21. Fifteen groups (8 rats per group) were prepared in a manner so that there was no major difference between the groups in the serum creatinine value and the urea nitrogen value indicating renal function. The rats in each group were allowed to freely take up feed and water. […] To the rats in the control group, only water was forcedly administered per os every day. If kidney diseases are aggravated, the rat will die of uremia. Thus, the survival time was observed as comprehensive indication of the improvement effect on the kidney diseases. The observation period was eight weeks. Thus if all rats survived, the average survival time is eight weeks and it is an upper limit.

[5] = target: T2, angiotensin II receptor subtype 1 (AT1) (Oryctolagus cuniculus, UniProt P34976); assay: Binding to angiotensin II receptor subtype 1 (AT1); parameters: species or system rabbits (adrenal glands); details: 100 μM; 3H-angiotensin II tracer
T2 construct: from adrenal glands in rabbits; from tissue; host or cells: rabbit adrenal glands
T2 sequence (P34976 1-359): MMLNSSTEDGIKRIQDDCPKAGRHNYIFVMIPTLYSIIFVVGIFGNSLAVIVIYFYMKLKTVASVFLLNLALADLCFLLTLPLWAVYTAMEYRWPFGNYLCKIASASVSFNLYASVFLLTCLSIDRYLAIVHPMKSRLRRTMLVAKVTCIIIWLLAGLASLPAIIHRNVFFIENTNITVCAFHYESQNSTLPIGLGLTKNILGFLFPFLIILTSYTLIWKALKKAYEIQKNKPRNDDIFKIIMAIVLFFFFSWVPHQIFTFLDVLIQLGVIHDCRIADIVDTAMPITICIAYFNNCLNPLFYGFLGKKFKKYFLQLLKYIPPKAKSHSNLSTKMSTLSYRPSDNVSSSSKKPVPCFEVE
Protocol: as §2, §3, §4, §5

[6] = test system: kidney disease model rats; assay: Renal function indicatory value (action to kidney diseases); format: in vivo, Sprague-Dawley female rats; details: 20 mg/kg/day per os, two weeks; for Creatinine clearance (CCr): control 0.20; for Creatinine (serum, Scr): control 2.0; for Urea nitrogen (BUN): control 100
Protocol: The kidney disease model rats were prepared by ligature of branches of renal artery in accordance with the conventional method, that is, the left hilum renalis of Sprague-Dawley female rats was exposed under anesthesia, and one of four secondary branches of renal artery was left unligated, while the remaining three branches were ligated, respectively. […] Each group consisted of eight rats. The drugs to be tested (20 mg/kg) were administered to each administering group, and only water was administered to control group. After two days from the administration, the systolic blood pressure was measured by the tail cuff method using a blood pressure measuring apparatus (UR5000; Ueda).
The kidney disease model rats were prepared as in Example 21. Fifteen groups (8 rats per group) were sleeked in a manner so that there were no major differences between each group in the serum creatinine value and the urea nitrogen value indicating renal function. The rats in each group were allowed to freely take up feed and water. […] To the rats in the control group, only water was forcedly administered per os every day. After two weeks, 0.2 ml of blood was collected from the carotid artery of the rat under anesthesia, and centrifuged to obtain serum. Using 25 μl of the serum, serum creatinine (Scr) was measured by a creatinine analytical instrument (Beckman). Using 10 μl of the serum, urea nitrogen (BUN) was measured by a BUN analytical instrument (Beckman). Creatinine clearance was evaluated as follows:
After serum creatinine measurement, rats were placed in urinary metabolic cages for 24 hours to collect urine. Urinary creatine concentration (Ucr) was measured by a creatinine analytical instrument, and total volume of urination (Uvol) was also measured. Creatinine clearance (CCr) was calculated by the following formula: [formula]

[7] = ACE inhibitor; cited from earlier work
[8] = test system: kidney disease model rats; details: cited from earlier work
hyperlipemia model rats = details: cited from earlier work
[9] = test system: renal dysfunction model rats; details: cited from earlier work

Structure (SMILES) | Blood pressure (average systolic) [2] | inhibition at 100 µM [3] | Average survival time [4] | inhibition at 100 µM [5] | Creatinine clearance (CCr) [6] | Creatinine (serum, Scr) [6] | Urea nitrogen (BUN) [6] | blood pressure [7] | progress of renal dysfunction [7] | other results
CCCCC(=O)Nc1c(Cl)ncnc1NCc1ccc(C(=O)OC)cc1 [Compound No. 1, methyl 4-[[(6-chloro-5-valeramido)pyrimidin-4-yl]aminomethyl]benzoate] | 210 mmHg | 0% | 6.9 weeks | 11% | 0.29 mL/min | 1.7 mg/dL | 84 mg/dL |  |  | Number of deaths/number of survivals [1]: 0/5
CCOC(=O)[C@H](CCc1ccccc1)N[C@@H](C)C(=O)N1CCC[C@H]1C(=O)O [enalapril] |  |  |  |  |  |  |  | blood pressure is lowered | the progress of renal dysfunction is improved | 
C[C@H](CS)C(=O)N1CCC[C@H]1C(=O)O [captoril] |  |  |  |  |  |  |  | blood pressure is lowered | the progress of renal dysfunction is improved | 
CCCN(Cc1ccc(-c2ccccc2-c2nnn[nH]2)cc1)c1ncccc1C(=O)O [A-81988, 2-[N-propyl-N-[[2'-(1H-tetrazol-5-yl)biphenyl-4-yl]methyl]amino]pyridine-3-carboxylic acid] |  |  |  |  |  |  |  |  |  | blood pressure [8]: the reduction of blood pressure was observed; proteinuria [8]: proteinuria was improved
CCCCc1nc(Cl)c(CO)n1Cc1ccc(-c2ccccc2-c2nnn[nH]2)cc1 [DuP753, 2-butyl-4-chloro-5-(hydroxymethyl)-1-[[2'-(1H-tetrazol-5-yl)biphenyl-4-yl]methyl]imidazole] |  |  |  |  |  |  |  |  |  | blood pressure (hyperlipemia model rats; large dose more effective against the kidney disease): an evident reduction of blood pressure was observed; blood pressure (hyperlipemia model rats; lower dose): without practical effect to blood pressure; effect on kidney disease (hyperlipemia model rats; lower dose): the kidney disease was improved; action to depress blood pressure (in words) ([2]; comparison with control group): clearly showed the action to depress the blood pressure; blood pressure [9]: the reduction of blood pressure accompanied; effect on proteinuria and glomerulosclerosis [9]: effective against proteinuria and glomerulosclerosis
CCCCC(=O)Nc1c(NCCCc2ccccc2)ncnc1NCc1ccc(C(=O)O)cc1 [Compound No. 9, 4-[[(6-phenylpropylamino-5-valeramido)pyrimidin-4-yl]aminomethyl]benzoic acid] | 204 mmHg | 0% | 6.9 weeks | 6% | 0.31 mL/min | 1.6 mg/dL | 80 mg/dL |  |  | 
